This note sets out measurements from patent US20090285774A1, “Hepatitis C Virus Inhibitors” (Bristol-Myers Squibb Company, priority 2008, published 2009).

The target in this assay is T1, HCV NS3/4A protease complex, J4L6S strain (1b genotype) (Hepatitis C virus genotype 1b, UniProt O92972, C1454S/C1711G).
T1 construct: DNA encoding the recombinant HCV NS3/4A protease complex (amino acids 1027 to 1711) for these strains; inferred from pET21b vector and Ni-NTA purification; made in house; host or cells: Escherichia coli BL21 (DE3), pET21b
T1 sequence (O92972 1027-1711 C1454S/C1711G, one chain of several): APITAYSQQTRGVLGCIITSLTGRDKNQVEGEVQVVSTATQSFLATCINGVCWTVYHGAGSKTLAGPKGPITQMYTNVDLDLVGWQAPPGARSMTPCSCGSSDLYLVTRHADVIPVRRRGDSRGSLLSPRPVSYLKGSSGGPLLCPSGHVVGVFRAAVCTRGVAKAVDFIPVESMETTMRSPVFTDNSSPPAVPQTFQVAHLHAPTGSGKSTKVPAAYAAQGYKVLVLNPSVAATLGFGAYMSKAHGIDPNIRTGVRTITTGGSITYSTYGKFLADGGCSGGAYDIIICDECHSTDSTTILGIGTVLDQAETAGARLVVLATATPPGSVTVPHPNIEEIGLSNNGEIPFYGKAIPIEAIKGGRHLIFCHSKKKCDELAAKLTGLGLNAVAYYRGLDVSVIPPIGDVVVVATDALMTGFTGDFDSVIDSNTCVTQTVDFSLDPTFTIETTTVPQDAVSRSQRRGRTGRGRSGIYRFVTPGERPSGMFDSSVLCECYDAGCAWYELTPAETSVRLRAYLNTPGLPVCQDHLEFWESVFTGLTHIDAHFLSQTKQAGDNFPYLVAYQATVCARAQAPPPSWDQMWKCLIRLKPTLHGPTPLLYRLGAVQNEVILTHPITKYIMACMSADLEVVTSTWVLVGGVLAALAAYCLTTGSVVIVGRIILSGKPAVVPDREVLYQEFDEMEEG
Put plainly: FRET peptide assay to monitor HCV NS3/4A proteolytic activity (J4L6S strain). In kind it is biochemical. From the text: HCV NS3 protease complexes, derived from the BMS strain, H77 strain or J4L6S strain, were generated, as described below. These purified recombinant proteins were generated for use in a homogeneous assay (see below) to provide an indication of how effective compounds of the present disclosure would be in inhibiting HCV NS3 proteolytic activity.
Serum from an HCV-infected patient was obtained from Dr. T. Wright, San Francisco Hospital. An engineered full-length cDNA (compliment deoxyribonucleic acid) template of the HCV genome (BMS strain) was constructed from DNA fragments obtained by reverse transcription-PCR (RT-PCR) of serum RNA (ribonucleic acid) and using primers selected on the basis of homology between other genotype 1a strains. From the determination of the entire genome sequence, a genotype 1a was assigned to the HCV isolate according to the classification of Simmonds et al. (See P Simmonds, K A Rose, S Graham, S W Chan, F McOmish, B C Dow, E A Follett, P L Yap and H Marsdeni, J. Clin. Microbiol., 31(6):1493-1503 (1993)). […]

Molecules are shown by their SMILES.

In turn, `C=C[C@@H]1C[C@]1(NC(=O)[C@@H]1C[C@@H](OC(=O)N2Cc3cccc(F)c3C2)CN1C(=O)C(Nc1cc(C)cc(C)n1)C(C)C)C(=O)NS(=O)(=O)C1CC1` (single isomer, unassigned) [Compound 2A] returned an IC50 of 1.2 nM. This counts as single-digit nanomolar.

The term IC50 denotes the concentration that gives 50% inhibition. Low readings indicate higher potency, high ones lower potency.
